Laboratory results as given in US6737383B1, “Herbicidal oxadiazolidines” (priority 1999, dated 2004).

Key:
[1] = system: bedstraw; experiment: Test B pre/postemergence bedstraw; assay type: in vivo, Galium aparine; conditions: Preemergence
Procedure, shortened: (§1)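 Test chemicals in a non-phytotoxic solvent mixture with surfactant were sprayed preemergence onto planted seeds and postemergence onto plants 2 to 18 cm tall (1- to 4-leaf stage). After twelve to sixteen days in a greenhouse, injury was visually rated against untreated controls from 0 (no effect) to 10 (complete control).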

[2] = system: blackgrass; experiment: Test B pre/postemergence blackgrass; assay type: in vivo, Alopecurus myosuroides; conditions: Preemergence
Procedure, shortened: as §1

[3] = system: surinam grass; experiment: Test B pre/postemergence surinam grass; assay type: in vivo, Brachiaria decumbens; conditions: Preemergence
Procedure, shortened: as §1

[4] = system: cocklebur; experiment: Test B pre/postemergence cocklebur; assay type: in vivo, Xanthium strumarium; conditions: Preemergence
Procedure, shortened: as §1

[5] = system: corn; experiment: Test B pre/postemergence corn; assay type: in vivo, Zea mays; conditions: Preemergence
Procedure, shortened: as §1

[6] = system: crabgrass; experiment: Test B pre/postemergence crabgrass; assay type: in vivo, Digitaria sanguinalis; conditions: Preemergence
Procedure, shortened: as §1

[7] = system: giant foxtail; experiment: Test B pre/postemergence giant foxtail; assay type: in vivo, Setaria faberii; conditions: Preemergence
Procedure, shortened: as §1

[8] = system: morningglory; experiment: Test B pre/postemergence morningglory; assay type: in vivo, Ipomoea hederacea; conditions: Preemergence
Procedure, shortened: as §1

[9] = system: pigweed; experiment: Test B pre/postemergence pigweed; assay type: in vivo, Amaranthus retroflexus; conditions: Preemergence
Procedure, shortened: as §1

[10] = system: rape; experiment: Test B pre/postemergence rape; assay type: in vivo, Brassica napus; conditions: Preemergence
Procedure, shortened: as §1

[11] = system: soybean; experiment: Test B pre/postemergence soybean; assay type: in vivo, Glycine max; conditions: Preemergence
Procedure, shortened: as §1

[12] = system: sugar beet; experiment: Test B pre/postemergence sugar beet; assay type: in vivo, Beta vulgaris; conditions: Preemergence
Procedure, shortened: as §1

[13] = system: velvetleaf; experiment: Test B pre/postemergence velvetleaf; assay type: in vivo, Abutilon theophrasti; conditions: Preemergence
Procedure, shortened: as §1

[14] = system: wheat; experiment: Test B pre/postemergence wheat; assay type: in vivo, Triticum aestivum; conditions: Preemergence
Procedure, shortened: as §1

[15] = system: wild oat; experiment: Test B pre/postemergence wild oat; assay type: in vivo, Avena fatua; conditions: Preemergence
Procedure, shortened: as §1

[16] = system: purple nutsedge; experiment: Test B pre/postemergence purple nutsedge; assay type: in vivo, Cyperus rotundus; conditions: Preemergence
Procedure, shortened: as §1

[17] = system: rice; experiment: Test B flood test rice; assay type: in vivo, Oryza sativa
Procedure, shortened: (§2)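 Read-out is a visual response score from 0 (no effect) to 10 (complete control), assigned by comparison with untreated controls. Treatment was applied at the 2-leaf stage, and plants stayed in the greenhouse for twelve to sixteen days before scoring.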

[18] = system: smallflower flatsedge; experiment: Test B flood test smallflower flatsedge; assay type: in vivo, Cyperus difformis
Procedure, shortened: as §2

[19] = system: duck salad; experiment: Test B flood test duck salad; assay type: in vivo, Heteranthera limosa
Procedure, shortened: as §2

[20] = system: bamyardgrass; experiment: Test B flood test barnyardgrass; assay type: in vivo, Echinochloa crus-galli
Procedure, shortened: as §2

[21] = Rate 62 g/ha, scale of 0 to 10 where 0 is no effect and 10 is complete control
[22] = Rate 125 g/ha, scale of 0 to 10 where 0 is no effect and 10 is complete control
[23] = Rate 250 g/ha, scale 0 (no effect) to 10 (complete control)
[24] = Rate 500 g/ha, scale 0 to 10 (0 no effect, 10 complete control)
[25] = Pre-emergence, Rate 62 g/ha, scale 0 to 10, 0 is no effect, 10 is complete control
[26] = Rate 125 g/ha, Pre-emergence section (flood test species), scale 0 to 10, 0 no effect, 10 complete control
[27] = Rate 250 g/ha, Pre-emergence (flood test species), scale 0 to 10, 0 is no effect, 10 is complete control
[28] = Rate 500 g/ha, Pre-emergence section of Table B, 0 to 10 scale (0 no effect, 10 complete control)

CC(C)N(C(=O)n1oc(=O)n(C(C)C2=NOCC2)c1=O)c1ccc(F)cc1 (racemic) [Compound 721]
1: Morningglory plant response rating [8, 21] | Rape plant response rating [10, 21]
3: Bedstraw plant response rating [1, 21] | Plant response rating, Corn [5, 22] | Sugarbeets plant response rating [12, 21] | Plant response rating, Wheat [14, 22] | Wheat plant response rating [14, 23] | Nutsedge plant response rating [16, 24]
7: B. signalgrass plant response rating [3, 21] | Soybean plant response rating [11, 24] | Plant response rating, Sugarbeets [12, 22] | Sugarbeets plant response rating [12, 23]
10: Plant response rating, Bedstraw [1, 22] | Bedstraw plant response rating [1, 23] | Bedstraw plant response rating [1, 24] | Plant response rating, Blackgrass [2, 22] | Blackgrass plant response rating [2, 23] | Blackgrass plant response rating [2, 24] | B. signalgrass plant response rating [3, 24] | Plant response rating, Giant foxtail [7, 22] | Giant foxtail plant response rating [7, 23] | Giant foxtail plant response rating [7, 24] | Plant response rating, Redroot pigweed [9, 22] | Redroot pigweed plant response rating [9, 23] | Redroot pigweed plant response rating [9, 24] | Rape plant response rating [10, 24] | Velvetleaf plant response rating [13, 24] | Wild oats plant response rating [15, 24]
8: Plant response rating, B. signalgrass [3, 22] | B. signalgrass plant response rating [3, 23] | Corn plant response rating [5, 24] | Sugarbeets plant response rating [12, 24] | Velvetleaf plant response rating [13, 23] | Wheat plant response rating [14, 24] | Plant response rating, Wild oats [15, 22] | Wild oats plant response rating [15, 23]
9: Blackgrass plant response rating [2, 21] | Crabgrass plant response rating [6, 21] | Plant response rating, Crabgrass [6, 22] | Crabgrass plant response rating [6, 23] | Crabgrass plant response rating [6, 24] | Giant foxtail plant response rating [7, 21] | Redroot pigweed plant response rating [9, 21] | Plant response rating, Rape [10, 22] | Rape plant response rating [10, 23]
2: Cocklebur plant response rating [4, 23] | Cocklebur plant response rating [4, 24] | Plant response rating, Morningglory [8, 22] | Morningglory plant response rating [8, 23]
5: Corn plant response rating [5, 23] | Morningglory plant response rating [8, 24] | Plant response rating, Velvetleaf [13, 22]
6: Wild oats plant response rating [15, 21]
0: Cocklebur plant response rating [4, 21] | Plant response rating, Cocklebur [4, 22] | Corn plant response rating [5, 21] | Soybean plant response rating [11, 21] | Plant response rating, Soybean [11, 22] | Soybean plant response rating [11, 23] | Velvetleaf plant response rating [13, 21] | Wheat plant response rating [14, 21] | Nutsedge plant response rating [16, 21] | Plant response rating, Nutsedge [16, 22] | Nutsedge plant response rating [16, 23] | Rice plant response rating [17, 25] | Rice plant response rating [17, 26] | Rice plant response rating [17, 27] | Rice plant response rating [17, 28] | S. Flatsedge plant response rating [18, 25] | S. Flatsedge plant response rating [18, 26] | S. Flatsedge plant response rating [18, 27] | S. Flatsedge plant response rating [18, 28] | Ducksalad plant response rating [19, 25] | Ducksalad plant response rating [19, 26] | Ducksalad plant response rating [19, 27] | Ducksalad plant response rating [19, 28] | Barnyardgrass plant response rating [20, 25] | Barnyardgrass plant response rating [20, 26] | Barnyardgrass plant response rating [20, 27] | Barnyardgrass plant response rating [20, 28]
